Values after ≈ are worked out from the molar mass of the structure shown. Where two headings read alike, the source gives them in different places.
Experiments:
[1] = test system: DNA polymerase of CMV versus human DNA polymerase α; conditions: cited from earlier work
[2] = test system: VAR-BSH (1975 Bangladesh isolate of VAR major); experiment: organism not typed; format: cell-based, variola major; conditions: for IC50: Vero
[3] = test system: VAR-BSH (1975 Bangladesh isolate of VAR major); experiment: organism not typed; format: cell-based, variola major; conditions: for IC50: LLC-MK2, read-out: IC50 VAR-BSH LLC-MK2
[4] = test system: VAR-YAM (1946 Japan Yamada isolate of VAR major); experiment: organism not typed; format: cell-based, variola major; conditions: for IC50: Vero
[5] = test system: VAR-YAM (1946 Japan Yamada isolate of VAR major); experiment: organism not typed; format: cell-based, variola major; conditions: for IC50: LLC-MK2, read-out: IC50 VAR-YAM LLC-MK2
[6] = test system: VAR-GAR (1966 Brazil Garcia isolate of VAR minor); experiment: organism not typed; format: cell-based, variola minor; conditions: for IC50: Vero
[7] = test system: VAR-GAR (1966 Brazil Garcia isolate of VAR minor); experiment: organism not typed; format: cell-based, variola minor; conditions: for IC50: LLC-MK2, read-out: IC50 VAR-GAR LLC-MK2
[8] = test system: MPX Zaire (V79-1-005-Scab); experiment: organism not typed; format: cell-based, monkeypox; conditions: for IC50: Vero
[9] = test system: MPX Zaire (V79-1-005-Scab); experiment: organism not typed; format: cell-based, monkeypox; conditions: for IC50: LLC-MK2, read-out: IC50 MPX LLC-MK2
CPX Brighton [10] = experiment: organism not typed; format: cell-based, cowpox; conditions: for IC50: Vero
CPX Brighton [11] = experiment: organism not typed; format: cell-based, cowpox; conditions: for IC50: LLC-MK2, read-out: IC50 CPX LLC-MK2
VAC Copenhagen [12] = experiment: microbe, parasite or virus in culture; format: cell-based, vaccinia virus; conditions: for IC50: Orthopoxvirus vaccinia, Vero, read-out: IC50 VAC Vero
VAC Copenhagen [13] = experiment: microbe, parasite or virus in culture; format: cell-based, vaccinia virus; conditions: for IC50: Orthopoxvirus vaccinia, LLC-MK2, read-out: IC50 VAC LLC-MK2
[14] = test system: orthopoxviruses (VAR-BSH, VAR-YAM, VAR-GAR, MPX, CPX, VAC); experiment: organism not typed; format: cell-based
VAC = experiment: microbe, parasite or virus in culture; format: cell-based; conditions: Orthopoxvirus vaccinia, read-out: IC50 against VAC
Vero cells = conditions: African green monkey
LLC-MK2 cells = conditions: rhesus monkey
VAR isolate Butler = experiment: organism not typed; format: cell-based, variola minor; conditions: Vero, read-out: IC50, VAR isolate Butler
VAR isolate Minn124 = experiment: organism not typed; format: cell-based, variola minor; conditions: Vero, read-out: IC50, VAR isolate Minn124
VAR isolate V68-59 = experiment: organism not typed; format: cell-based, variola minor; conditions: Vero, read-out: IC50, VAR isolate V68-59
VAR isolate 102 = experiment: organism not typed; format: cell-based, variola; conditions: Vero, read-out: IC50, VAR isolate 102
VAR isolate 7124 = experiment: organism not typed; format: cell-based, variola; conditions: Vero, read-out: IC50, VAR isolate 7124
VAR isolate 7125 = experiment: organism not typed; format: cell-based, variola; conditions: Vero, read-out: IC50, VAR isolate 7125
VAR isolate Eth17 = experiment: organism not typed; format: cell-based, variola; conditions: Vero, read-out: IC50, VAR isolate Eth17
VAR isolate Heidelberg = experiment: organism not typed; format: cell-based, variola; conditions: Vero, read-out: IC50, VAR isolate Heidelberg
VAR isolate Higgins = experiment: organism not typed; format: cell-based, variola; conditions: Vero, read-out: IC50, VAR isolate Higgins
VAR isolate Hinden = experiment: organism not typed; format: cell-based, variola; conditions: Vero, read-out: IC50, VAR isolate Hinden
VAR isolate Horn = experiment: organism not typed; format: cell-based, variola; conditions: Vero, read-out: IC50, VAR isolate Horn
VAR isolate Iran 2602 = experiment: organism not typed; format: cell-based, variola; conditions: Vero, read-out: IC50, VAR isolate Iran 2602
VAR isolate K1629 = experiment: organism not typed; format: cell-based, variola; conditions: Vero, read-out: IC50, VAR isolate K1629
VAR isolate Jee = experiment: organism not typed; format: cell-based, variola; conditions: Vero, read-out: IC50, VAR isolate Jee
VAR isolate Rafig Lahore = experiment: organism not typed; format: cell-based, variola; conditions: Vero, read-out: IC50, VAR isolate Rafig Lahore
VAR isolate Rumbec = experiment: organism not typed; format: cell-based, variola; conditions: Vero, read-out: IC50, VAR isolate Rumbec
VAR isolate Shahzaman = experiment: organism not typed; format: cell-based, variola; conditions: Vero, read-out: IC50, VAR isolate Shahzaman
VAR isolate Somalia = experiment: organism not typed; format: cell-based, variola; conditions: Vero, read-out: IC50, VAR isolate Somalia
VAR isolate V70-46 = experiment: organism not typed; format: cell-based, variola; conditions: Vero, read-out: IC50, VAR isolate V70-46
VAR isolate V70-222 = experiment: organism not typed; format: cell-based, variola; conditions: Vero, read-out: IC50, VAR isolate V70-222
VAR isolate V72-119 = experiment: organism not typed; format: cell-based, variola; conditions: Vero, read-out: IC50, VAR isolate V72-119
VAR isolate V73-175 = experiment: organism not typed; format: cell-based, variola; conditions: Vero, read-out: IC50, VAR isolate V73-175
VAR isolate V73-225 = experiment: organism not typed; format: cell-based, variola; conditions: Vero, read-out: IC50, VAR isolate V73-225
VAR isolate V74-227 = experiment: organism not typed; format: cell-based, variola; conditions: Vero, read-out: IC50, VAR isolate V74-227
VAR isolate V77-1605 = experiment: organism not typed; format: cell-based, variola; conditions: Vero, read-out: IC50, VAR isolate V77-1605
all VAR isolates tested = experiment: organism not typed; format: cell-based, variola; conditions: Vero, read-out: IC50, VAR mean

Nc1ccn(CC(CO)OCP(=O)(O)OP(=O)(O)OP(=O)(O)O)c(=O)n1 (stereo not drawn) [Cidofovir diphosphate, cidofovir 5′-diphosphate]
lower concentration inhibiting DNA polymerase of CMV than human DNA polymerase α [1]: 10 fold

CC(C)(C)C(=O)OCOP(=O)(COCCn1cnc2c(N)ncnc21)OCOC(=O)C(C)(C)C [bis-POM-PMEA, 9-[2-[[bis[(pivaloyloxy)-methoxy]phosphinyl]methoxy]ethyl]adenine]
Therapeutic index (TI) VAR-BSH Vero [2]: 1.2
IC50 ([2]; read-out: IC50 VAR-BSH Vero): 84.2 µg/mL (≈ 168 µM)
Therapeutic index (TI) VAR-BSH LLC-MK2 [3]: 1.0
IC50 [3]: > 100 µg/mL
Therapeutic index (TI) VAR-YAM Vero [4]: 1.0
IC50 ([4]; read-out: IC50 VAR-YAM Vero): > 100 µg/mL
Therapeutic index (TI) VAR-YAM LLC-MK2 [5]: 1.0
IC50 [5]: > 100 µg/mL
Therapeutic index (TI) VAR-GAR Vero [6]: 1.1
IC50 ([6]; read-out: IC50 VAR-GAR Vero): 90 µg/mL (≈ 179 µM)
Therapeutic index (TI) VAR-GAR LLC-MK2 [7]: 1.2
IC50 [7]: 85 µg/mL (≈ 169 µM)
Therapeutic index (TI) MPX Vero [8]: 1.0
IC50 ([8]; read-out: IC50 MPX Vero): > 100 µg/mL
Therapeutic index (TI) MPX LLC-MK2 [9]: 1.0
IC50 [9]: > 100 µg/mL
Therapeutic index (TI) CPX Vero (CPX Brighton [10]): 1.3
IC50 (CPX Brighton [10]; read-out: IC50 CPX Vero): 75.5 µg/mL (≈ 151 µM)
Therapeutic index (TI) CPX LLC-MK2 (CPX Brighton [11]): 1.2
IC50 (CPX Brighton [11]): 86 µg/mL (≈ 171 µM)
Therapeutic index (TI) VAC Vero (VAC Copenhagen [12]): 2.3
IC50 (VAC Copenhagen [12]): 44 µg/mL (≈ 87.7 µM)
Therapeutic index (TI) VAC LLC-MK2 (VAC Copenhagen [13]): 1.5
IC50 (VAC Copenhagen [13]): 66.2 µg/mL (≈ 132 µM)
inhibitory activity against the orthopoxviruses tested (in words) [14]: Neither PMEA nor bis-POM-PMEA was effective
IC50 (VAC): 55.1 µg/mL (≈ 110 µM)
Cytotoxicity TC50 Vero (Vero cells): >100 µg/mL
Cytotoxicity TC50 LLC-MK2 (LLC-MK2 cells): >100 µg/mL

Nc1ccn(C[C@H]2COP(=O)(O)CO2)c(=O)n1 [cHPMPC, 1-[(S)-2-hydroxy-2-oxo-1-[4,2-dioxaphosphorinan-5-yl]methyl]cytosine]
Therapeutic index (TI) VAR-BSH Vero [2]: 3.2
IC50 ([2]; read-out: IC50, VAR isolate Bangladesh): 17 µg/mL (≈ 65.1 µM)
IC50 ([2]; read-out: IC50 VAR-BSH Vero): 25.3 µg/mL (≈ 96.9 µM)
Therapeutic index (TI) VAR-BSH LLC-MK2 [3]: 4.9
IC50 [3]: 20.3 µg/mL (≈ 77.7 µM)
Therapeutic index (TI) VAR-YAM Vero [4]: 2.8
IC50 ([4]; read-out: IC50, VAR isolate Yamada): 31 µg/mL (≈ 119 µM)
IC50 ([4]; read-out: IC50 VAR-YAM Vero): 28.2 µg/mL (≈ 108 µM)
Therapeutic index (TI) VAR-YAM LLC-MK2 [5]: 16.4
IC50 [5]: 6.1 µg/mL (≈ 23.4 µM)
Therapeutic index (TI) VAR-GAR Vero [6]: 10.1
IC50 ([6]; read-out: IC50, VAR isolate Garcia): 4 µg/mL (≈ 15.3 µM)
IC50 ([6]; read-out: IC50 VAR-GAR Vero): 7.9 µg/mL (≈ 30.2 µM)
Therapeutic index (TI) VAR-GAR LLC-MK2 [7]: 16.9
IC50 [7]: 5.9 µg/mL (≈ 22.6 µM)
Therapeutic index (TI) MPX Vero [8]: 6.5
IC50 ([8]; read-out: IC50, MPX): 21 µg/mL (≈ 80.4 µM)
IC50 ([8]; read-out: IC50 MPX Vero): 12.3 µg/mL (≈ 47.1 µM)
Therapeutic index (TI) MPX LLC-MK2 [9]: 29.4
IC50 [9]: 3.4 µg/mL (≈ 13 µM)
Therapeutic index (TI) CPX Vero (CPX Brighton [10]): 3.0
IC50 (CPX Brighton [10]; read-out: IC50, CPX): 52 µg/mL (≈ 199 µM)
IC50 (CPX Brighton [10]; read-out: IC50 CPX Vero): 26.9 µg/mL (≈ 103 µM)
Therapeutic index (TI) CPX LLC-MK2 (CPX Brighton [11]): 1.0
IC50 (CPX Brighton [11]): > 100 µg/mL
Therapeutic index (TI) VAC Vero (VAC Copenhagen [12]): 4.4
IC50 (VAC Copenhagen [12]): 18.1 µg/mL (≈ 69.3 µM)
Therapeutic index (TI) VAC LLC-MK2 (VAC Copenhagen [13]): 22.7
IC50 (VAC Copenhagen [13]): 4.4 µg/mL (≈ 16.8 µM)
IC50 (VAR isolate Butler): 6 µg/mL (≈ 23 µM)
IC50 (VAR isolate Minn124): 9 µg/mL (≈ 34.5 µM)
IC50 (VAR isolate V68-59): 20 µg/mL (≈ 76.6 µM)
IC50 (VAR isolate 102): 38 µg/mL (≈ 145 µM)
IC50 (VAR isolate 7124): 26 µg/mL (≈ 99.6 µM)
IC50 (VAR isolate 7125): 24 µg/mL (≈ 91.9 µM)
IC50 (VAR isolate Eth17): 17 µg/mL (≈ 65.1 µM)
IC50 (VAR isolate Heidelberg): 14 µg/mL (≈ 53.6 µM)
IC50 (VAR isolate Higgins): 17 µg/mL (≈ 65.1 µM)
IC50 (VAR isolate Hinden): 19 µg/mL (≈ 72.7 µM)
IC50 (VAR isolate Horn): 12 µg/mL (≈ 45.9 µM)
IC50 (VAR isolate Iran 2602): 7 µg/mL (≈ 26.8 µM)
IC50 (VAR isolate K1629): 25 µg/mL (≈ 95.7 µM)
IC50 (VAR isolate Jee): 7 µg/mL (≈ 26.8 µM)
IC50 (VAR isolate Rafig Lahore): 18 µg/mL (≈ 68.9 µM)
IC50 (VAR isolate Rumbec): 16 µg/mL (≈ 61.3 µM)
IC50 (VAR isolate Shahzaman): 14 µg/mL (≈ 53.6 µM)
IC50 (VAR isolate Somalia): 8 µg/mL (≈ 30.6 µM)
IC50 (VAR isolate V70-46): 13 µg/mL (≈ 49.8 µM)
IC50 (VAR isolate V70-222): 23 µg/mL (≈ 88.1 µM)
IC50 (VAR isolate V72-119): 18 µg/mL (≈ 68.9 µM)
IC50 (VAR isolate V73-175): 16 µg/mL (≈ 61.3 µM)
IC50 (VAR isolate V73-225): 9 µg/mL (≈ 34.5 µM)
IC50 (VAR isolate V74-227): 9 µg/mL (≈ 34.5 µM)
IC50 (VAR isolate V77-1605): 22 µg/mL (≈ 84.2 µM)
IC50 (all VAR isolates tested): 17 ± 2 µg/mL (≈ 65.1 µM)
IC50 ([14]; read-out: mean IC50 against the panel of viruses): 21.6 ± 7.6 µg/mL (≈ 82.7 µM)
Cytotoxicity TC50 Vero (Vero cells): 80.0 µg/mL
Cytotoxicity TC50 LLC-MK2 (LLC-MK2 cells): >100 µg/mL
